Test results published in patent publication US20130059773A1, “COMPOUNDS FOR THE TREATMENT OF INFLAMMATION AND NEUTROPENIA” (priority 2010, published 2013).
Entries after “also recorded” stand apart in the source; their conditions may differ. Where a SMILES comes first, the peptide text is derived from it. The star is where a group is joined. Cbz = O=C(OCc1ccccc1)*

Legend:
Type in all cases: cell-based, human
neutrophils [1] = assay: Neutrophil apoptosis/survival by phosphatidylserine externalization after annexin-V and 7-AAD labeling; details: for Effect of proteasome inhibitors on neutrophil death: neutrophils 15 h at 37° C.
Protocol: Analysis of apoptosis. Neutrophil apoptosis was triggered by incubating neutrophils at 37° C. alone (constitutive apoptosis) or with anti-Fas mAb (10 ng/ml; Beckman-Coulter) or gliotoxin ([…]; Sigma) (Ward et al. 1999, J. Biol. Chem. 274:4309-4318) for the indicated times. Neutrophil apoptosis was evaluated by phosphatidylserine externalization after annexin-V and 7-AAD labeling (Kantari et al. 2007, Blood 110:4086-4095); mitochondrial depolarization after DiOC6 labeling (Moriceau et al. 2009, J. Immuno1.182:7254-7263); caspase-3 and caspase-8 activities measured by spectrophotometry (Biovision) in neutrophil lysates. In DMF-differentiated-PLB985 cells, apoptosis was triggered by gliotoxin or by rTRAIL (10 ng/ml; RD System) (Yin et al. 2005, Int. J. Biochem. Cell Biol. 37:1696-1708) and caspase-8 and caspase-9 activities were determined after gating on CD11b^+ cells using the Caspase-Glow® assay (Promega). Apoptosis-induced chromatin condensation and DNA fragmentation were assessed, respectively, after DNA staining with the blue fluorescent dye Hoechst (5 mg/ml) and propidium-iodide staining (Goepel et al. 2004, J. Leukoc. Biol. 75:836-843). Carboxyp21 ([…], SEQ ID NO: 24) corresponding to the p21 carboxy-terminus sequence (residues 141-160) and containing a RYIRS carboxy-terminal extension to facilitate its cell entry was synthesized and purified (Genecust). A modified peptide in which the charged amino acids responsible for its binding to PCNA have been changed according to dynamic simulation studies ([…], SEQ ID NO: 25) served as control. The effect of PS-341 (LC Laboratories) and MG132 were tested on neutrophil apoptosis and PCNA expression as indicated.

PCNA = PCNA expression in neutrophils by Western blot; details: for Effect of proteasome inhibitors on apoptosis-induced PCNA diminution: neutrophils 15 h at 37° C.
Protocol: Western blot analysis and co-immunoprecipitation experiments. Neutrophils were sonicated and cytosolic proteins were analyzed using either the PC10 mAb or the Ab5 pAb anti-PCNA according to standard immunoblot procedures (Moriceau et al. 2009, J. Immunol. 182:7254-7263). Co-immunoprecipitation experiments were performed using neutrophil cytosols obtained by cavitation (Witko-Sarsat et al. 1999, Blood 94:2487-2496). Cytosol ([…]) was mixed with […] of protein G and Ab5 pAb and incubated for 30 min at 4° C. under shaking. The sample was loaded onto a column containing Sepharose-coated magnetic beads (Milteny), washed with a stringent washing buffer (50 mM Tris, 500 mM NaCl, 1% NP-40, 0.5% Triton X-100). The column was washed twice with this buffer, twice with the same buffer except that the NaCl was 300 mM and, finally, 5 times with a hyposaline buffer (20 mM Tris pH 7.5). The sample was eluted from the column with […] 5× sample buffer and analyzed by Western blotting using different mAb to potential partners. PCNA was detected on the Western blot with the PC10 mAb and procaspases were detected with either anti-procaspase-8 (Calbiochem) mAb or mouse anti-procaspase-10 (Santa Cruz) or anti-procaspase-9 (Santa Cruz) or anti-procaspase-3 (Santa Cruz) mAbs, followed by horseradish peroxidase-conjugated anti-mouse IgG (Nordic Immunology diluted 1:5000), using the SuperSignal West Pico detection kit (Pierce).

neutrophils [2] = assay: Effects of the peptides on neutrophil apoptosis (annexin V / 7-AAD flow cytometry); details: for Early Apoptosis, Mean / Late Apoptosis, Mean / Total Apoptosis, Mean: peptide concentration = 200 μM, 16 h at 37° C.; for Early Apoptosis, Mean: percentage annexin-V positive and 7-AAD negative; for Late Apoptosis, Mean: percentage annexin-V positive and 7-AAD positive; for Total Apoptosis, Mean: percentage of cells either 7-AAD or annexin-V-positive; for Early Apoptosis / Late Apoptosis / Total Apoptosis: peptide concentration = 500 μM
Protocol: Effects of the peptides on neutrophil apoptosis. Neutrophils were isolated from the blood of healthy volunteers using polymorphoprep (Witko-Sarsat et al. 1999; Blood 94:2487-96). Physiological apoptosis of these neutrophils was then activated by incubating them at 37° C. during 16 h in RPMI culture medium complemented with 10% serum. Under these conditions, neutrophils undergo a spontaneous apoptosis which can be evaluated by measuring the phosphatidylserine externalization (Kantari et al. 2007; Blood 110:4086-95; Moriceau et al. 2009; J Immunol 182:7254-63). Phosphatidylserine was stained using a fluorochrome-coupled annexin V allowing detection of apoptotic neutrophils by flow cytometry using a Facscan (Beckton Dickinson). Neutrophils stained with annexin V express the phosphatidylserine and are recognized and phagocytosed by macrophages. Furthermore, a secondary staining with the 7AAD intercalating agent was used to indicate late apoptosis (Durant et al. 2004; J Leukocyte Biol 75:87-98). Thus, total apoptosis is measured by the percentage of cells being either 7-AAD or annexin-V-positive (the rest of the cells being considered as viable). Early apoptosis is measured by the percentages of neutrophils being both annexin-V positive and 7-AAD negative. Late apoptosis is measured by the percentages of neutrophils being both annexin-V positive and 7-AAD positive. The necrotic cells being 7AAD positive are excluded from the analysis on the basis of the data of size/granulometry by flow cytometry analysis. […]
The peptides were added to the neutrophil cells and their effect on cell apoptosis was analyzed by measuring the phosphatidylserine externalization. Phosphatidylserine was stained using a fluorochrome-coupled annexin V allowing detection of apoptotic neutrophils by flow cytometry. Neutrophils stained with annexin V express the phosphatidylserine and are recognized and phagocytosed by macrophages. Furthermore, a secondary staining with the 7AAD intercalating agent was used to indicate late apoptosis, allowing distinction between early and late apoptosis.

neutrophils [3] = assay: Neutrophil apoptosis by mitochondrial depolarization after DiOC6 labeling; parameters: dose or concentration left out as unconfirmed; details: 6 h at 37° C., peptide
Protocol: Analysis of apoptosis. Neutrophil apoptosis was triggered by incubating neutrophils at 37° C. alone (constitutive apoptosis) or with anti-Fas mAb (10 ng/ml; Beckman-Coulter) or gliotoxin ([…]; Sigma) (Ward et al. 1999, J. Biol. Chem. 274:4309-4318) for the indicated times. Neutrophil apoptosis was evaluated by phosphatidylserine externalization after annexin-V and 7-AAD labeling (Kantari et al. 2007, Blood 110:4086-4095); mitochondrial depolarization after DiOC6 labeling (Moriceau et al. 2009, J. Immuno1.182:7254-7263); caspase-3 and caspase-8 activities measured by spectrophotometry (Biovision) in neutrophil lysates. In DMF-differentiated-PLB985 cells, apoptosis was triggered by gliotoxin or by rTRAIL (10 ng/ml; RD System) (Yin et al. 2005, Int. J. Biochem. Cell Biol. 37:1696-1708) and caspase-8 and caspase-9 activities were determined after gating on CD11b^+ cells using the Caspase-Glow® assay (Promega). Apoptosis-induced chromatin condensation and DNA fragmentation were assessed, respectively, after DNA staining with the blue fluorescent dye Hoechst (5 mg/ml) and propidium-iodide staining (Goepel et al. 2004, J. Leukoc. Biol. 75:836-843). Carboxyp21 ([…], SEQ ID NO: 24) corresponding to the p21 carboxy-terminus sequence (residues 141-160) and containing a RYIRS carboxy-terminal extension to facilitate its cell entry was synthesized and purified (Genecust). […]

| Compound | Early Apoptosis, Mean (neutrophils [2]) | Late Apoptosis, Mean (neutrophils [2]) | Total Apoptosis, Mean (neutrophils [2]) | Early Apoptosis (neutrophils [2]; Table VI (peptides 5-9)) | Late Apoptosis (neutrophils [2]; Table VI (peptides 5-9)) | Total Apoptosis (neutrophils [2]; Table VI (peptides 5-9)) | further results |
| --- | --- | --- | --- | --- | --- | --- | --- |
| CC(C)C[C@@H](C=O)NC(=O)[C@H](CC(C)C)NC(=O)[C@H](CC(C)C)NC(=O)OCc1ccccc1 [MG132, reference compound] (Cbz-Leu-Leu-Leu-aldehyde) | – | – | – | – | – | – | Effect of proteasome inhibitors on neutrophil death (neutrophils [1]): significantly inhibited neutrophil death; Effect of proteasome inhibitors on apoptosis-induced PCNA diminution (PCNA): reversed the apoptosis-induced PCNA diminution |
| CC(C)C[C@H](NC(=O)[C@H](Cc1ccccc1)NC(=O)c1cnccn1)B(O)O [PS-341, reference compound] | – | – | – | – | – | – | Effect of proteasome inhibitors on neutrophil death (neutrophils [1]): significantly inhibited neutrophil death; Effect on PCNA degradation after incubation with anti-Fas or gliotoxin (PCNA; 6 h at 37° C., PS-341 (1 mM)): reversed PCNA degradation; Effect of proteasome inhibitors on apoptosis-induced PCNA diminution (PCNA): reversed the apoptosis-induced PCNA diminution |
| APNQEKVSDYEMKLMRYIRS [peptide 1] | 62.52 | 11.47 | 73.67 | – | – | – | Early Apoptosis (neutrophils [2]; Table V (peptides 1-4)): 65.06; Late Apoptosis (neutrophils [2]; Table V (peptides 1-4)): 6.62; Total Apoptosis (neutrophils [2]; Table V (peptides 1-4)): 68.74 |
| KDGVKFRYIRS [peptide 5] | 62.44 | 12.36 | 74.36 | 75.21 | 5.39 | 77.67 | – |
| KRRQTGETDFDHAKAALIFSRYIRS [modified carboxy-21 peptide, reference compound] | – | – | – | – | – | – | Apoptotic neutrophils as cells with depolarized mitochondria after DiOC6 labeling (neutrophils [3]): no such activity was observed |
| KRRQTSMTDFYHSKRRLIFSRYIRS [carboxyp21] | – | – | – | – | – | – | Apoptotic neutrophils as cells with depolarized mitochondria after DiOC6 labeling (neutrophils [3]): triggered neutrophil apoptosis; Cells with externalized phosphatidylserine after annexin-V labeling (neutrophils [1]; 6 h at 37° C., 50 mM peptide): significantly increased percentage of cells with externalized phosphatidylserine; Effect on G-CSF-induced neutrophil survival (neutrophils [1]; G-CSF 1000 U/ml, carboxyp21 50 μM, 15 h): significantly inhibited G-CSF-induced neutrophil survival; PCNA expression in neutrophils exposed to increasing peptide concentrations (PCNA; 3 h, increasing carboxyp21 concentrations): dose-dependent decrease of PCNA expression |
| MKLMDLDVEQLGIPEQEYSRYIRS [peptide 3] | 63.00 | 13.27 | 76.20 | – | – | – | Pro- or anti-apoptotic activity on neutrophils, conclusion in words (neutrophils [2]): exhibit a pro-apoptotic activity on neutrophils; Effect on annexin V staining (neutrophil apoptosis), in words (neutrophils [2]; 500 μM): induced an increase of the annexin V staining; Early Apoptosis (neutrophils [2]; Table V (peptides 1-4)): 68.05; Late Apoptosis (neutrophils [2]; Table V (peptides 1-4)): 12.63; Total Apoptosis (neutrophils [2]; Table V (peptides 1-4)): 78.56 |
| MSADVPLRYIRS [peptide 7] | 62.60 | 12.30 | 74.40 | 66.26 | 2.85 | 64.85 | – |
| SQTSNVDKEEEAVRYIRS [peptide 6] | 62.91 | 13.11 | 76.02 | 66.43 | 5.2 | 67.42 | – |
| YGRKKRRQRRRAPNQEKVSDYEMKLM [peptide 2] | 52.29 | 17.38 | 69.33 | – | – | – | Early Apoptosis (neutrophils [2]; Table V (peptides 1-4)): 46.92; Late Apoptosis (neutrophils [2]; Table V (peptides 1-4)): 23.97; Total Apoptosis (neutrophils [2]; Table V (peptides 1-4)): 68.08 |
| YGRKKRRQRRRMKLMDLDVEQLGIPEQEYS [peptide 4] | 62.34 | 27.88 | 89.83 | – | – | – | Pro- or anti-apoptotic activity on neutrophils, conclusion in words (neutrophils [2]): exhibit a pro-apoptotic activity on neutrophils; Effect on annexin V staining (neutrophil apoptosis), in words (neutrophils [2]; 200 μM): induced an increase of the annexin V staining; Pro-apoptotic activity on late apoptosis, in words (neutrophils [2]; 200 μM, Table IV): particularly obvious on late apoptosis; Early Apoptosis (neutrophils [2]; Table V (peptides 1-4)): 53.11; Late Apoptosis (neutrophils [2]; Table V (peptides 1-4)): 33.74; Total Apoptosis (neutrophils [2]; Table V (peptides 1-4)): 82.84 |
| YGRKKRRQRRRYYLAPKIEDEEGS [peptide 9] | 50.03 | 23.90 | 73.43 | 48.44 | 26.32 | 71.84 | Pro- or anti-apoptotic activity on neutrophils, conclusion in words (neutrophils [2]): capable of preventing neutrophil apoptosis |
| YYLAPKIEDEEGSRYIRS [peptide 8] | 40.67 | 6.23 | 46.43 | 48.94 | 8.99 | 48.77 | Pro- or anti-apoptotic activity on neutrophils, conclusion in words (neutrophils [2]): significant anti-apoptotic activity; also recorded: capable of preventing neutrophil apoptosis |
| interferon-g: cytokine that prolongs neutrophil survival | – | – | – | – | – | – | Effect on PCNA degradation in neutrophils (PCNA): prevented PCNA degradation |
